These results are taken from patent US20100190807A1, “CDKI Pathway inhibitors and uses thereof to regulate expression to TAU protein” (Senex Biotechnology, Inc., priority 2008, published 2010).

The target of the assay is T1, NFκB (p50 and p65 subunits) (Homo sapiens, UniProt P19838+Q04206).
T1 construct: endogenous in cells; control or TNFα-treated
The assay is described as follows: TransAM NFκB p65 and p50 transcription factor assay (oligonucleotide binding). The assay is classed as cell-based. The source says: The left set of bars represents cells treated with carrier control, the middle set represents cells treated with SNX2, and the right set represents cells treated with a known inhibitor of NFκB binding (TPCK).
We also tested if these compounds could act as the inhibitors of NFκB, by measuring cellular levels of p50 or p65 subunits binding oligonucleotides containing NFκB consensus binding site, using ACTIVE MOTIF TransAM™ NFκB p65 Chemi and NFκB p50 Chemi Transcription Factor Assay Kits.

T1 sequence (P19838 1-433 limits assumed): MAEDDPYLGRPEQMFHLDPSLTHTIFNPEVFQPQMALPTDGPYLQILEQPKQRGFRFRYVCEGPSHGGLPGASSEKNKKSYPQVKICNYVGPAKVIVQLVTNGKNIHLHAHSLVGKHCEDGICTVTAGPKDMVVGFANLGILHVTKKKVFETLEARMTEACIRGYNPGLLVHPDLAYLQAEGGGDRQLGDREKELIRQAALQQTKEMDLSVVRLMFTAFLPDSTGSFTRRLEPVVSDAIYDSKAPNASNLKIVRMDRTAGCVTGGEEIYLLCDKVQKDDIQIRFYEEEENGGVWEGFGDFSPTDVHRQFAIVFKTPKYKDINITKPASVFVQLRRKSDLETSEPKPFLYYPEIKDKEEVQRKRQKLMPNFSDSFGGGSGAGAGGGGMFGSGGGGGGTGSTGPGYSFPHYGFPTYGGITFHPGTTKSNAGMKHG
T1 sequence (Q04206 whole entry): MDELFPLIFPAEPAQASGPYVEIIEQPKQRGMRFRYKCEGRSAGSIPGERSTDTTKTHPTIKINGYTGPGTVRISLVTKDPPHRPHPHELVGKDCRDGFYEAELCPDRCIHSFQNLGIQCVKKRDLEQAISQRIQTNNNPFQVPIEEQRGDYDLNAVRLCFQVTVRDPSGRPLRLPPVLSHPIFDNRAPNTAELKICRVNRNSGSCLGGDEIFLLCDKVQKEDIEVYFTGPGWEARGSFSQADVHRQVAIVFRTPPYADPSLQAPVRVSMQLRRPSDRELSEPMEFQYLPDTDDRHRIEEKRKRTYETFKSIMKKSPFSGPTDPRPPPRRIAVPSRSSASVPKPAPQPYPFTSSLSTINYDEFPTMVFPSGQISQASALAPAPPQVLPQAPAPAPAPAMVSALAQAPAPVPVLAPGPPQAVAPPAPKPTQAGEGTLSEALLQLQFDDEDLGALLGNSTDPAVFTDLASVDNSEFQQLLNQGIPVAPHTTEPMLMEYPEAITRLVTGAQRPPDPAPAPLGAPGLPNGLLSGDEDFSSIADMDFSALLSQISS

With `Cc1ccc(S(=O)(=O)N[C@@H](Cc2ccccc2)C(=O)CCl)cc1` [TPCK], under “TNFα-treated cells”, the “TNFα-induced NFκB activity” value is “completely blocks”. In addition, the “basal NFκB activity” value (control cells) is “completely blocks”.
